Assays:
[1] = system: African green monkey Vero kidney cells (ATCC CCL-81); experiment: Cytotoxicity against Vero cells (alamarBlue); type: cell-based; conditions: highest concentration tested (128 μg/mL); 24 hours
Protocol: The cytotoxicity of the phenylspirodrimanes and stachybocin A was assessed in vitro against African green monkey Vero kidney cells (ATCC CCL-81). Cells were cultured in 15 mL of Eagle's minimal essential medium (Sigma) supplemented with 10% (v/v) fetal bovine serum (VWR), […] and 0.1 mg/mL streptomycin in T75 cm^2 cell culture flasks. Cells were incubated for 24 hours at 37° C. in a humidified atmosphere of 5% CO2. Culture medium was refreshed every 2-3 days and cells were not allowed to exceed 80% confluency.
At 80% confluency the cells were counted, diluted and plated into 96 well flat bottom cell culture plates (Corning) at a cell density of 10,000 cells per well in 90 μL of growth medium. The plates were incubated at 37° C. in a humidified atmosphere of 5% CO2 for 24 hours to allow cells to adhere to the plate before treatment. […]
The plates were incubated at 37° C. in a humidified atmosphere of 5% C02 for 24 hours after which alamarBlue (Invitrogen) was added to each well at 10% of the culture volume. Fluorescence was monitored using a Thermo Scientific Varioskan Flash plate reader at 560/12 excitation, 590 nm emission both at time zero and 4 hrs after alamarBlue addition. After subtracting the time zero emission 590 nm measurement from the final reading, the inferred percentage of cell viability relative to the vehicle control wells was calculated.

[2] = system: Botrytis cinerea (ATCC 90479); experiment: Adjuvancy: growth inhibition of Botrytis cinerea on agar with fungicide and/or adjuvant (colony diameter); type: cell-based; conditions: for Fold Change in Growth Inhibition: 48 h, 22° C.; for inherent fungicidal activity on their own: adjuvant alone, any of the concentrations tested; for fungicidal activity compared to dimethomorph, prothioconazole, mancozeb, metalaxyl and pyrimethanil alone: in words, adjuvant plus fungicide
[3] = adjuvant 12.5 μg/mL + pyraclostrobin 0.1 μg/mL vs pyraclostrobin alone
[4] = adjuvant 12.5 μg/mL + pyraclostrobin 0.2 μg/mL vs pyraclostrobin alone
[5] = adjuvant 12.5 μg/mL + pyraclostrobin 0.4 μg/mL vs pyraclostrobin alone
[6] = adjuvant 12.5 μg/mL + pyraclostrobin 0.8 μg/mL vs pyraclostrobin alone
[7] = adjuvant 12.5 μg/mL + tebuconazole 0.05 μg/mL vs tebuconazole alone
[8] = adjuvant 12.5 μg/mL + tebuconazole 0.10 μg/mL vs tebuconazole alone
[9] = adjuvant 12.5 μg/mL + tebuconazole 0.19 μg/mL vs tebuconazole alone
[10] = adjuvant 12.5 μg/mL + tebuconazole 0.38 μg/mL vs tebuconazole alone
[11] = adjuvant 25 μg/mL + pyraclostrobin 0.1 μg/mL vs pyraclostrobin alone
[12] = adjuvant 25 μg/mL + pyraclostrobin 0.2 μg/mL vs pyraclostrobin alone
[13] = adjuvant 25 μg/mL + pyraclostrobin 0.4 μg/mL vs pyraclostrobin alone
[14] = adjuvant 25 μg/mL + pyraclostrobin 0.8 μg/mL vs pyraclostrobin alone
[15] = adjuvant 25 μg/mL + tebuconazole 0.05 μg/mL vs tebuconazole alone
[16] = adjuvant 25 μg/mL + tebuconazole 0.10 μg/mL vs tebuconazole alone
[17] = adjuvant 25 μg/mL + tebuconazole 0.19 μg/mL vs tebuconazole alone
[18] = adjuvant 25 μg/mL + tebuconazole 0.38 μg/mL vs tebuconazole alone
[19] = adjuvant 50 μg/mL + pyraclostrobin 0.1 μg/mL vs pyraclostrobin alone
[20] = adjuvant 50 μg/mL + pyraclostrobin 0.2 μg/mL vs pyraclostrobin alone
[21] = adjuvant 50 μg/mL + pyraclostrobin 0.4 μg/mL vs pyraclostrobin alone
[22] = adjuvant 50 μg/mL + pyraclostrobin 0.8 μg/mL vs pyraclostrobin alone
[23] = adjuvant 50 μg/mL + tebuconazole 0.05 μg/mL vs tebuconazole alone
[24] = adjuvant 50 μg/mL + tebuconazole 0.10 μg/mL vs tebuconazole alone
[25] = adjuvant 50 μg/mL + tebuconazole 0.19 μg/mL vs tebuconazole alone
[26] = adjuvant 50 μg/mL + tebuconazole 0.38 μg/mL vs tebuconazole alone

Compound | cytotoxicity against Vero cells [1] | Fold Change in Growth Inhibition [2, 3] | Fold Change in Growth Inhibition [2, 4] | Fold Change in Growth Inhibition [2, 5] | Fold Change in Growth Inhibition [2, 6] | Fold Change in Growth Inhibition [2, 7] | Fold Change in Growth Inhibition [2, 8] | Fold Change in Growth Inhibition [2, 9] | Fold Change in Growth Inhibition [2, 10] | Fold Change in Growth Inhibition [2, 11] | Fold Change in Growth Inhibition [2, 12] | Fold Change in Growth Inhibition [2, 13] | Fold Change in Growth Inhibition [2, 14] | Fold Change in Growth Inhibition [2, 15] | Fold Change in Growth Inhibition [2, 16] | Fold Change in Growth Inhibition [2, 17] | Fold Change in Growth Inhibition [2, 18] | Fold Change in Growth Inhibition [2, 19] | Fold Change in Growth Inhibition [2, 20] | Fold Change in Growth Inhibition [2, 21] | further results
CC1CCC2C(C)(C)C(O)CCC2(C)C12Cc1c(O)cc3c(c1O2)CN(C(Cc1ccccc1)C(=O)O)C3=O (stereo not drawn) [Phe (Ib), phenylspirodrimane (Ib)] | did not exhibit any cytotoxicity | 3.59 | 1.11 | 1.47 | 1.55 | 22.22 | 2.83 | 2.17 | 1.03 | 4.25 | 1.56 | 1.08 | 1.19 | 7.94 | 1.67 | 1.83 | 1.00 | 17.87 | 1.67 | 1.62 | Fold Change in Growth Inhibition [2, 22]: 1.57; Fold Change in Growth Inhibition [2, 23]: 14.29; Fold Change in Growth Inhibition [2, 24]: 4.33; Fold Change in Growth Inhibition [2, 25]: 2.36; Fold Change in Growth Inhibition [2, 26]: 1.00; inherent fungicidal activity on their own [2]: did not demonstrate any inherent fungicidal activity; fungicidal activity compared to dimethomorph, prothioconazole, mancozeb, metalaxyl and pyrimethanil alone [2]: showed increased fungicidal activity
CC1CCC2C(C)(C)C(O)CCC2(C)C12Cc1c(O)cc3c(c1O2)CN(CCCCC(C(=O)O)N1Cc2c(cc(O)c4c2OC2(C4)C(C)CCC4C(C)(C)C(O)CCC42C)C1=O)C3=O (stereo not drawn) [Sta A (IIa), stachybocin A] | did not exhibit any cytotoxicity | 2.92 | 1.00 | 1.00 | 1.00 | 12.70 | 2.83 | 2.36 | 1.00 | 2.92 | 1.00 | 1.00 | 1.00 | 14.29 | 2.67 | 1.81 | 1.00 | 2.25 | 1.00 | 1.47 | Fold Change in Growth Inhibition [2, 22]: 1.08; Fold Change in Growth Inhibition [2, 23]: 12.70; Fold Change in Growth Inhibition [2, 24]: 2.17; Fold Change in Growth Inhibition [2, 25]: 1.36; Fold Change in Growth Inhibition [2, 26]: 1.00; inherent fungicidal activity on their own [2]: did not demonstrate any inherent fungicidal activity; fungicidal activity compared to dimethomorph, prothioconazole, mancozeb, metalaxyl and pyrimethanil alone [2]: showed increased fungicidal activity

Source: patent US20240156097A1, “AGROCHEMICAL ADJUVANTS FROM STACHYBOTRYS CHARTARUM” (Croda International Plc, priority 2021, published 2024)
